From ChEMBL document CHEMBL4219043, “Beyond the Rule of 5: Lessons Learned from AbbVie's Drugs and Compound Collection” (J Med Chem, 2018) come the findings set out here.

Structures are written as SMILES. Converted amounts (≈) assume the structure as drawn.

Series [1] is described as follows: Apparent permeability of the compound by PAMPA. It counts as ADME. In general terms: In PAMPA a lipid-coated filter parts donor from acceptor wells.
Series [2] can be described thus: Half life in dog at 3 mg/kg, po by LC-MS/MS analysis. The note with it: in vivo. It counts as ADME, organism-based, Canis lupus familiaris.
The nature of series [3]: Oral bioavailability in rat by LC-MS/MS analysis. It counts as ADME, organism-based. The note with it: in vivo.
Series [4] in a line: Plasma clearance in iv dosed rat by LC-MS/MS analysis. In kind it is ADME, organism-based.
The nature of series [5]: Half life in dog at 1 mg/kg, iv by LC-MS/MS analysis. It counts as ADME, organism-based, Canis lupus familiaris. The note with it: in vivo.
Series [6] in a line: Plasma clearance in dog at 1 mg/kg, iv by LC-MS/MS analysis. In kind it is ADME, organism-based, Canis lupus familiaris.
A short description of series [7]: (§1) Oral bioavailability in dog at 3 mg/kg by LC-MS/MS analysis. The conditions noted are these: in vivo. In kind it is ADME, organism-based, Canis lupus familiaris.
Series [8] has as its system Hepatitis C virus. In words: Antiviral activity against HCV genotype 1a H77 harboring NS3 D168V mutant infected in human HuH7 replicon cells after 3 days by luciferase reporter gene assay. The note with it: genotype 1a H77, Huh-7, 72 h. It counts as functional, organism-based, Hepacivirus hominis. Background: A replicon is a self-replicating genome or part of one, used to study replication in cells.

In series [9] the test system is Hepatitis C virus. In words: Resistance index, ratio of EC50 for HCV genotype 1a H77 harboring NS3 D168V mutant infected in human HuH7 replicon cells to EC50 for HCV genotype 1a H77 harboring wild type NS3 infected in human HuH7 replicon cells. In kind it is functional, Hepacivirus hominis.
Series [10] relates to Hepatitis C virus. In words: Resistance index, ratio of EC50 for HCV genotype 1b Con1 harboring NS3 D168V mutant infected in human HuH7 replicon cells to EC50 for HCV genotype 1b Con1 harboring wild type NS3 infected in human HuH7 replicon cells. It counts as functional, Hepacivirus hominis, isolate Con1.
Series [11] has as its system Hepatitis C virus. In words: Antiviral activity against HCV genotype 3a infected in human HuH7 replicon cells after 3 days in absence of human plasma by luciferase reporter gene assay. In kind it is functional, organism-based, Hepacivirus hominis. The note with it: Huh-7, 72 h.
A short description of series [12]: Half life in po dosed rat by LC-MS/MS analysis. The conditions noted are these: in vivo. In kind it is ADME, organism-based.
Series [13] has as its system Hepatitis C virus. In words: Antiviral activity against HCV genotype 1b Con1 infected in human HuH7 replicon cells after 3 days in absence of human plasma by luciferase reporter gene assay. It counts as functional, organism-based, Hepacivirus hominis. The note with it: isolate Con1, Huh-7, 72 h.
The nature of series [14]: Solubility in pH 7.2 buffer. It counts as physicochemical.
For series [15], the system named is Canis familiaris. The series is described as follows: Fraction of drug absorbed into portal vein in dog at 3 mg/kg, po by LC-MS/MS analysis. It counts as ADME, organism-based, Canis lupus familiaris. The note with it: in vivo.
The test system of series [16] is Hepatitis C virus. In words: Resistance index, ratio of EC50 for HCV genotype 1b Con1 harboring NS3 R155K mutant infected in human HuH7 replicon cells to EC50 for HCV genotype 1b Con1 harboring wild type NS3 infected in human HuH7 replicon cells. It counts as functional, Hepacivirus hominis, isolate Con1.
For series [17], the system named is Hepatitis C virus. The series is described as follows: Antiviral activity against HCV genotype 1b Con1 infected in human HuH7 replicon cells after 3 days in presence of 40% human plasma by luciferase reporter gene assay. In kind it is functional, organism-based, Hepacivirus hominis. The conditions noted are these: isolate Con1, Huh-7, 72 h.
Series [18] relates to Hepatitis C virus. In words: Ratio of EC50 in presence of 40% human plasma to EC50 in absence of human plasma for HCV genotype 1a H77 infected in human HuH7 replicon cells. It counts as functional, Hepacivirus hominis.
Series [19] deals with Hepatitis C virus. The series is described as follows: Antiviral activity against HCV genotype 1a H77 infected in human HuH7 replicon cells after 3 days in absence of human plasma by luciferase reporter gene assay. In kind it is functional, organism-based, Hepacivirus hominis. The conditions noted are these: genotype 1a H77, Huh-7, 72 h.
The test system of series [20] is Canis familiaris. In words: Dose normalized AUC in dog at 3 mg/kg, po after 24 hrs by LC-MS/MS analysis. In kind it is ADME, organism-based, Canis lupus familiaris. The conditions noted are these: in vivo.
Series [21] deals with Hepatitis C virus. The series is described as follows: Resistance index, ratio of EC50 for HCV genotype 1a H77 harboring NS3 R155K mutant infected in human HuH7 replicon cells to EC50 for HCV genotype 1a H77 harboring wild type NS3 infected in human HuH7 replicon cells. In kind it is functional, Hepacivirus hominis.
The subject of series [22] is Hepatitis C virus. In words: Antiviral activity against HCV genotype 1a H77 infected in human HuH7 replicon cells after 3 days in presence of 40% human plasma by luciferase reporter gene assay. It counts as functional, organism-based, Hepacivirus hominis. The conditions noted are these: genotype 1a H77, Huh-7, 72 h.
Series [23] has as its system Hepatitis C virus. The series is described as follows: Antiviral activity against HCV genotype 1b Con1 harboring NS3 R155K mutant infected in human HuH7 replicon cells after 3 days by luciferase reporter gene assay. In kind it is functional, organism-based, Hepacivirus hominis. The conditions noted are these: isolate Con1, Huh-7, 72 h.
Series [24] in a line: Half life in iv dosed rat by LC-MS/MS analysis. It counts as ADME, organism-based. The note with it: in vivo.
The test system of series [25] is Rattus norvegicus. The series is described as follows: Dose normalized AUC in po dosed rat after 24 hrs by LC-MS/MS analysis. The note with it: in vivo. In kind it is ADME, organism-based.
Series [26] in a line: Ratio of EC50 for HCV genotype 3a infected in human HuH7 replicon cells to EC50 for HCV genotype 1a H77 infected in human HuH7 replicon cells. In kind it is functional.
Series [27] relates to Hepatitis C virus. The series is described as follows: Antiviral activity against HCV genotype 1a H77 harboring NS3 R155K mutant infected in human HuH7 replicon cells after 3 days by luciferase reporter gene assay. It counts as functional, organism-based, Hepacivirus hominis. The note with it: genotype 1a H77, Huh-7, 72 h.
Series [28] relates to Hepatitis C virus. In words: Antiviral activity against HCV genotype 1b Con1 harboring NS3 D168V mutant infected in human HuH7 replicon cells after 3 days by luciferase reporter gene assay. In kind it is functional, organism-based, Hepacivirus hominis. The conditions noted are these: isolate Con1, Huh-7, 72 h.
The subject of series [29] is Canis familiaris. The description is as §1. In kind it is ADME, organism-based, Canis lupus familiaris. The note with it: in vivo.
Series [30] is described as follows: Apparent permeability of the compound in human Caco2 cells. In kind it is ADME, cell-based. The note with it: Caco-2. On the technique in general: Caco-2 cells form a polarised layer with tight junctions and transporters.
Series [31] deals with MOLT-4. The series is described as follows: Antiproliferative activity against human MOLT4 cells in presence of 10% human serum. In kind it is functional, cell-based.
The subject of series [32] is RS4-11. In words: Antiproliferative activity against human RS4:11 cells in presence of 10% human serum. It counts as functional, cell-based.
Series [33] deals with Apoptosis regulator Bcl-2 (Homo sapiens, UniProt P10415). The series is described as follows: Inhibition of Bcl2 (unknown origin).
Series [34] can be described thus: Oral bioavailability in dog. It counts as ADME, organism-based, Canis lupus familiaris. The conditions noted are these: in vivo.

Apoptosis regulator Bcl-2, sequence (P10415 whole entry): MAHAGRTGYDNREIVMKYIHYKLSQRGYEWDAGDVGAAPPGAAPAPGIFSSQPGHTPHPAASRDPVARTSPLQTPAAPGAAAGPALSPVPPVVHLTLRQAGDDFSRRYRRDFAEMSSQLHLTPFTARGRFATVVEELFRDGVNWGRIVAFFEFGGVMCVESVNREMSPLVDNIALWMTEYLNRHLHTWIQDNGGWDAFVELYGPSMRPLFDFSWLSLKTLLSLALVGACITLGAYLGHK

A word on the Papp: it is the rate of passage across a membrane or cell layer, normalised by area and donor concentration. The half-life is the time needed for the level to fall by half in the phase considered. High values mean slow decline, low ones rapid decline. The term clearance denotes the volume of plasma or blood freed of the substance per unit of time. Lower therefore signals a low capacity for elimination. In general, EC50 refers to the concentration giving half of the maximal effect. As a reminder, the Solubility is the dissolved amount per volume that the medium holds. Read a low Solubility as a poorly soluble substance. With `Cn1ccc(C(=O)N[C@H]2CCCCC/C=C\[C@@H]3C[C@@]3(C(=O)NS(=O)(=O)C3(C)CC3)NC(=O)[C@@H]3C[C@@H](Oc4nc5cc(OC(F)(F)F)ccc5c5ccc(F)cc45)CN3C2=O)n1`, the apparent permeability (Papp) in [1] amounted to 0.06 ×10⁻⁶ cm/s. Besides, the half-life is 4 h in [2], 3.2 h in [5], 4.6 h in series [12] and 5 h in [24]. Moreover, the results for the bioavailability in series [3] and in series [7] were 43% and 81%, respectively. The figures for the clearance in [4] and in series [6] were 18.3 mL/min/kg and 0.167 mL/min/kg, respectively. The half-maximal effective concentration (EC50) was 3 nM in series [8]; 0.3 to 0.8 nM in series [11]; 0.1 nM in [13]; 3 nM in series [17]; 0.2 nM in series [19]; 7 nM in series [22]. Further, the EC50 was 0.03 nM in [23] and 2 nM in series [27]. The “Ratio EC50” value in series [9] is listed as 97; in series [10], 2; in series [16], 0.5; in series [18], over 30; in series [21], 65; in series [26], “<=10”. The compound also returned a Solubility in series [14] of 0.65 µM (≈ 0.565 µg/mL). In series [15], the FaFg was found to be 0.8. In addition, the AUC/dose in series [20] is 138 µg·h/mL; in series [25] it was 0.4 µg·h/mL.

Take `Cc1cc(C(=O)N[C@H]2CCCCC/C=C\[C@@H]3C[C@@]3(C(=O)NS(=O)(=O)C3CC3)NC(=O)[C@@H]3C[C@@H](Oc4nc5ccccc5nc4C(F)(F)F)CN3C2=O)no1`: the half-life in series [2] is 1.5 h; in series [5] it was 1 h; in [12], 1.8 h; in [24], 1.2 h. For the same compound, the bioavailability in [3] was determined as 99.5%. Besides, the EC50 in series [28] was found to be 2 nM; in series [8] it was 33 nM; in series [13], 0.4 nM; in [17] it was 10 nM; in [19] it was 0.5 nM; in series [22] it was 12 nM. The 50% effective concentration (EC50) in series [23] turned out to be 0.7 nM; in [27], 0.4 nM. Also, the clearance was 3.5 mL/min/kg in series [4] and 5.67 mL/min/kg in [6]. In series [29], the F turned out to be 200%. The “Ratio EC50” value was 290 in series [9]; 6 in series [10]; 2 in series [16]; 6 - 35 in [18]; 4 in [21]. Also, the Solubility in series [14] turned out to be 150 µM (≈ 116 µg/mL). For the same compound, the FaFg in series [15] amounted to 1.5. The AUC/dose came out at 6.76 µg·h/mL in series [20] and 4.75 µg·h/mL in series [25]. Further, in series [30], the Papp amounted to 5.4 ×10⁻⁶ cm/s.

Regarding `Cc1cc(C(=O)N[C@H]2CCCCC/C=C\[C@@H]3C[C@@]3(C(=O)NS(=O)(=O)C3CC3)NC(=O)[C@@H]3C[C@@H](Oc4nc5cc(F)ccc5nc4C)CN3C2=O)no1`, the half-life in series [2] and in [5] was 2 h each time. Further, the EC50 in [28] stood at 3 nM; in [8] it was 41 nM; in [13] it was 0.8 nM; in [17], 7 nM; in [19], 1.1 nM; in series [22], 11 nM. The concentration for a half-maximal effect (EC50) in series [23] was determined as 1.6 nM; in series [27] it was 2 nM. The compound further gave a clearance in series [6] of 1.17 mL/min/kg. Also, the bioavailability in series [7] was determined as 123%. Further, the “Ratio EC50” value in [9] was 146; in series [10] it was 4; in series [16] it was 2; in series [18] it was 6 - 35; in [21], 7. For the same compound, the Solubility in series [14] was over 500 µM. Besides, the AUC/dose in [20] came to 18 µg·h/mL. Moreover, the Papp in series [30] stood at 2.8 ×10⁻⁶ cm/s.

By Ki is commonly meant a dissociation constant, usually derived from enzyme kinetics or from competition with a known ligand. A high value points to weaker binding. Consider `CO[C@H]1CC[C@H](CNc2ccc(S(=O)(=O)NC(=O)c3ccc(N4CCN(CC5=C(c6ccc(Cl)cc6)CC(C)(C)CC5)CC4)cc3Oc3cnc4[nH]ccc4c3)cc2[N+](=O)[O-])CC1` [A-1211212], for which the 50% effective concentration (EC50) in series [31] was over 5000 nM; in [32] it was 6 nM. The Ki in series [33] was under 0.01 nM.

Regarding `CC1(C)CCC(c2ccc(Cl)cc2)=C(CN2CCN(c3ccc(C(=O)NS(=O)(=O)c4ccc(N[C@H](CCN5CCOCC5)CSc5ccccc5)c(S(=O)(=O)C(F)(F)F)c4)cc3)CC2)C1` [NAVITOCLAX], the figures for the EC50 in series [31] and in series [32] were 303 nM and 112 nM, respectively. In [34], the bioavailability was 48%.
